Test results published in patent US20080051387A1, “TETRAHYDROPYRIDO[3,4-D]PYRIMIDINES AND RELATED ANALOGUES” (priority 2006, published 2008).

molecular target: T1, chimeric human H3 receptor (Homo sapiens, UniProt Q9Y5N1); assay: Chimeric human H3 receptor screening GTP binding assay (inhibition of histamine-stimulated GTP-gamma35S binding, Example 8); assay type: biochemical; conditions: symbol ! in Ki; test compound 4 μM, 1 μM histamine; read-out: percent inhibition of agonist-induced GTP-gammaS binding to H3
T1 construct: rat Galpha-i2 (Gnai2, rat); made in house; host or cells: Sf9 insect cells (baculovirus); P2 membranes
Method: This Example illustrates a representative screening assay for evaluating inhibition of histamine-stimulated GTP-gamma^35S binding. Such GTP binding activity can be used to identify H3 antagonists and inverse agonists. A compound analyzed in this assay is referred to herein as a “test compound,” and the initial identification of antagonists and inverse agonists is performed using a test compound concentration of 4 μM.
Four independent baculoviral stocks (one directing the expression of the chimeric human H3 receptor and three directing the expression of each of the three subunits of a heterotrimeric G-protein) are used to infect a culture of Sƒ9 cells as described above. P2 membranes are prepared as described above, and are resuspended by Dounce homogenization (tight pestle) in GTP binding assay buffer (50 mM Tris pH 7.4, 120 mM NaCl, 5 mM MgCl2, 2 mM EGTA, 1 mg/ml BSA, 0.2 mg/ml bacitracin, 0.02 mg/ml aprotinin, 0.01 mg/ml saponin, 10 μM GDP) and added to assay tubes at a concentration of 35 μg protein/reaction tube. Non-radiolabeled test compounds are added to separate reactions at a concentration of 4 μM along with 1 μM histamine (agonist). Reactions are initiated by the addition of 125 pM GTP-gamma^35S with a final assay volume of 0.20 ml.
After a 60-min incubation at room temperature, reactions are terminated by vacuum filtration over GF/C filters (pre-soaked in 50 mM Tris pH 7.4, 120 mM NaCl plus 0.1% BSA) followed by washing with ice-cold buffer (50 mM Tris pH 7.4, 120 mM NaCl). The amount of receptor-bound (and thereby membrane-bound) GTP-gamma^35S is determined by measuring the bound radioactivity, preferably by liquid scintillation spectrometry of the washed filters. Non-specific binding is determined using 10 uM GTP-gammaS and typically represents less than 5 percent of total binding. After subtraction of non-specific binding, data is expressed as percent inhibition of 1 μM histamine signal.
Neutral antagonists are those test compounds that reduce the histamine-stimulated GTP binding activity towards, but not below, baseline levels. In contrast, in the absence of added histamine, inverse agonists reduce the GTP binding activity of the receptor-containing membranes below baseline. Any test compound that elevates GTP binding activity above baseline in the absence of added histamine in this assay is defined as having agonist activity.

T1 sequence (Q9Y5N1 with tags, fused parts or gaps): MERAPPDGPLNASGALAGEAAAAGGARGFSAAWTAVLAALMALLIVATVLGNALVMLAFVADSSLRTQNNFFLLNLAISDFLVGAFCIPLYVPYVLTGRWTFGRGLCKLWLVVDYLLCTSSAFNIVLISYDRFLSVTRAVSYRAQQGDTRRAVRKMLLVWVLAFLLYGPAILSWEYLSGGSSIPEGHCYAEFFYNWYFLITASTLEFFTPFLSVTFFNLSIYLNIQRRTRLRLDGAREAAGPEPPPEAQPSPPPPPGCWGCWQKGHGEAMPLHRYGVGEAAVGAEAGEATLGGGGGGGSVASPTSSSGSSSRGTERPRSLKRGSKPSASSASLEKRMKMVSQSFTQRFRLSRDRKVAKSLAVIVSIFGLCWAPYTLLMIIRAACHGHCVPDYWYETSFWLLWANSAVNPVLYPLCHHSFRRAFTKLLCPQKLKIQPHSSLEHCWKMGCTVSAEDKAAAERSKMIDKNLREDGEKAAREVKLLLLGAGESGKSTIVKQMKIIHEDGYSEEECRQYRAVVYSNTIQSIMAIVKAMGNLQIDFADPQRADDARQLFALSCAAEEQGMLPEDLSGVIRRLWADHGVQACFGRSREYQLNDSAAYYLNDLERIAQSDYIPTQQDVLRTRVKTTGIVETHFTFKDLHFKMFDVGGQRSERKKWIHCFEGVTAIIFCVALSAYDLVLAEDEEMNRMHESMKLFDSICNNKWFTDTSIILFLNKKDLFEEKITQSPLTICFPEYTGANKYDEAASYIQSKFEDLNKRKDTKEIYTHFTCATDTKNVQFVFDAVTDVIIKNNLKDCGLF

Compound | inhibition at 4 µM [%]
CCN(CCN(C)C)c1ncnc2c1CCN(Cc1ccccc1)C2 [Compound 14, N-(7-benzyl-5,6,7,8-tetrahydropyrido[3,4-d]pyrimidin-4-yl)-N-ethyl-N′,N′-dimethylethane-1,2-diamine] | ≥ 90
CCN(CC)C1CCN(c2ncnc3c2CCN(Cc2ccccc2)C3)C1 (centres unmarked) [Compound 15, 1-(7-benzyl-5,6,7,8-tetrahydropyrido[3,4-d]pyrimidin-4-yl)-N,N-diethylpyrrolidin-3-amine] | ≥ 90
c1ccc(CN2CCc3c(ncnc3N3CCN(C4CCCC4)CC3)C2)cc1 [Compound 16, 7-benzyl-4-(4-cyclopentylpiperazin-1-yl)-5,6,7,8-tetrahydropyrido[3,4-d]pyrimidine] | ≥ 90
c1ccc(CN2CCc3c(ncnc3N3CCC(N4CCCCC4)CC3)C2)cc1 [Compound 17, 1′-(7-benzyl-5,6,7,8-tetrahydropyrido[3,4-d]pyrimidin-4-yl)-1,4′-bipiperidine] | ≥ 90
c1ccc(CN2CCc3c(ncnc3N3CCC(N4CCCCCC4)CC3)C2)cc1 [Compound 18, 4-(4-azepan-1-ylpiperidin-1-yl)-7-benzyl-5,6,7,8-tetrahydropyrido[3,4-d]pyrimidine] | ≥ 90
c1ccc(CN2CCc3c(ncnc3N3CCN(CCCN4CCCC4)CC3)C2)cc1 [Compound 19, 7-benzyl-4-[4-(3-pyrrolidin-1-ylpropyl)piperazin-1-yl]-5,6,7,8-tetrahydropyrido[3,4-d]pyrimidine] | ≥ 90
CCN(CC)CCCN1CCN(c2ncnc3c2CCN(Cc2ccccc2)C3)CC1 [Compound 20, 3-[4-(7-benzyl-5,6,7,8-tetrahydropyrido[3,4-d]pyrimidin-4-yl)piperazin-1-yl]-N,N-diethylpropan-1-amine] | ≥ 90
c1ccc(CN2CCc3c(ncnc3N3CCN(CCCN4CCCCC4)CC3)C2)cc1 [Compound 21, 7-benzyl-4-[4-(3-piperidin-1-ylpropyl)piperazin-1-yl]-5,6,7,8-tetrahydropyrido[3,4-d]pyrimidine] | ≥ 90
O=C(c1ccccc1)N1CCc2c(ncnc2N2CCN(C3CCC3)CC2)C1 [Compound 22, 7-benzoyl-4-(4-cyclobutylpiperazin-1-yl)-5,6,7,8-tetrahydropyrido[3,4-d]pyrimidine] | ≥ 90
Cc1cccc(C(=O)N2CCc3c(ncnc3N3CCN(C4CCC4)CC3)C2)c1 [Compound 23, 4-(4-cyclobutylpiperazin-1-yl)-7-(3-methylbenzoyl)-5,6,7,8-tetrahydropyrido[3,4-d]pyrimidine] | ≥ 90
Cc1ccc(C(=O)N2CCc3c(ncnc3N3CCN(C4CCC4)CC3)C2)cc1 [Compound 24, 4-(4-cyclobutylpiperazin-1-yl)-7-(4-methylbenzoyl)-5,6,7,8-tetrahydropyrido[3,4-d]pyrimidine] | ≥ 90
Cc1ccccc1C(=O)N1CCc2c(ncnc2N2CCN(C3CCC3)CC2)C1 [Compound 25, 4-(4-cyclobutylpiperazin-1-yl)-7-(2-methylbenzoyl)-5,6,7,8-tetrahydropyrido[3,4-d]pyrimidine] | ≥ 90
COc1cccc(C(=O)N2CCc3c(ncnc3N3CCN(C4CCC4)CC3)C2)c1 [Compound 26, 4-(4-cyclobutylpiperazin-1-yl)-7-(3-methoxybenzoyl)-5,6,7,8-tetrahydropyrido[3,4-d]pyrimidine] | ≥ 90
COc1ccc(C(=O)N2CCc3c(ncnc3N3CCN(C4CCC4)CC3)C2)cc1 [Compound 27, 4-(4-cyclobutylpiperazin-1-yl)-7-(4-methoxybenzoyl)-5,6,7,8-tetrahydropyrido[3,4-d]pyrimidine] | ≥ 90
COc1ccccc1C(=O)N1CCc2c(ncnc2N2CCN(C3CCC3)CC2)C1 [Compound 28, 4-(4-cyclobutylpiperazin-1-yl)-7-(2-methoxybenzoyl)-5,6,7,8-tetrahydropyrido[3,4-d]pyrimidine] | ≥ 90
O=C(c1cccc(F)c1)N1CCc2c(ncnc2N2CCN(C3CCC3)CC2)C1 [Compound 29, 4-(4-cyclobutylpiperazin-1-yl)-7-(3-fluorobenzoyl)-5,6,7,8-tetrahydropyrido[3,4-d]pyrimidine] | ≥ 90
O=C(c1ccc(F)cc1)N1CCc2c(ncnc2N2CCN(C3CCC3)CC2)C1 [Compound 30, 4-(4-cyclobutylpiperazin-1-yl)-7-(4-fluorobenzoyl)-5,6,7,8-tetrahydropyrido[3,4-d]pyrimidine] | ≥ 90
O=C(c1ccccc1F)N1CCc2c(ncnc2N2CCN(C3CCC3)CC2)C1 [Compound 31, 4-(4-cyclobutylpiperazin-1-yl)-7-(2-fluorobenzoyl)-5,6,7,8-tetrahydropyrido[3,4-d]pyrimidine] | ≥ 90
O=C(c1ccco1)N1CCc2c(ncnc2N2CCN(C3CCC3)CC2)C1 [Compound 32, 4-(4-cyclobutylpiperazin-1-yl)-7-(2-furoyl)-5,6,7,8-tetrahydropyrido[3,4-d]pyrimidine] | ≥ 90
O=C(c1ccoc1)N1CCc2c(ncnc2N2CCN(C3CCC3)CC2)C1 [Compound 33, 4-(4-cyclobutylpiperazin-1-yl)-7-(3-furoyl)-5,6,7,8-tetrahydropyrido[3,4-d]pyrimidine] | ≥ 90
O=C(c1cccnc1)N1CCc2c(ncnc2N2CCN(C3CCC3)CC2)C1 [Compound 34, 4-(4-cyclobutylpiperazin-1-yl)-7-(pyridin-3-ylcarbonyl)-5,6,7,8-tetrahydropyrido[3,4-d]pyrimidine] | ≥ 90
O=C(c1ccccn1)N1CCc2c(ncnc2N2CCN(C3CCC3)CC2)C1 [Compound 35, 4-(4-cyclobutylpiperazin-1-yl)-7-(pyridin-2-ylcarbonyl)-5,6,7,8-tetrahydropyrido[3,4-d]pyrimidine] | ≥ 90
O=C(c1ccno1)N1CCc2c(ncnc2N2CCN(C3CCC3)CC2)C1 [Compound 36, 4-(4-cyclobutylpiperazin-1-yl)-7-(isoxazol-5-ylcarbonyl)-5,6,7,8-tetrahydropyrido[3,4-d]pyrimidine] | ≥ 90
Cc1noc(C)c1C(=O)N1CCc2c(ncnc2N2CCN(C3CCC3)CC2)C1 [Compound 37, 4-(4-cyclobutylpiperazin-1-yl)-7-[(3,5-dimethylisoxazol-4-yl)carbonyl]-5,6,7,8-tetrahydropyrido[3,4-d]pyrimidine] | ≥ 90
Cc1ncccc1C(=O)N1CCc2c(ncnc2N2CCN(C3CCC3)CC2)C1 [Compound 38, 4-(4-cyclobutylpiperazin-1-yl)-7-[(2-methylpyridin-3-yl)carbonyl]-5,6,7,8-tetrahydropyrido[3,4-d]pyrimidine] | ≥ 90
Cc1cc(C(=O)N2CCc3c(ncnc3N3CCN(C4CCC4)CC3)C2)nn1C [Compound 39, 4-(4-cyclobutylpiperazin-1-yl)-7-[(1,5-dimethyl-1H-pyrazol-3-yl)carbonyl]-5,6,7,8-tetrahydropyrido[3,4-d]pyrimidine] | ≥ 90

same assay, conditions: test compound 4 μM, 1 μM histamine; read-out: percent inhibition of agonist-induced GTP-gammaS binding to H3

Compound | inhibition at 4 µM [%]
c1ccc(CN2CCc3c(ncnc3N3CCN(C4CCC4)CC3)C2)cc1 [Compound 1, 7-Benzyl-4-(4-cyclobutylpiperazin-1-yl)-5,6,7,8-tetrahydropyrido[3,4-d]pyrimidine] | ≥ 90
c1nc2c(c(N3CCN(C4CCC4)CC3)n1)CCN(CC1CCCCC1)C2 [Compound 2, 4-(4-Cyclobutylpiperazin-1-yl)-7-cyclohexylmethyl-5,6,7,8-tetrahydropyrido[3,4-d]pyrimidine] | ≥ 90
CC(=O)c1ccc(N2CCc3c(ncnc3N3CCN(C4CCC4)CC3)C2)cc1 [Compound 3, 1-{4-[4-(4-Cyclobutylpiperazin-1-yl)-5,8-dihydropyrido[3.4-d]pyrimidin-7(6H)-yl]phenyl}Ethanone] | ≥ 90
O=C(c1ccc(F)cc1)N1CCc2cnc(N3CCN(C4CCC4)CC3)nc2CC1 [Compound 10, [2-(4-Cyclobutyl-piperazin-1-yl)-5,6,8,9-tetrahydro-pyrimido[4.5-d]azepin-7-yl]-(4-fluoro-phenyl)-methanone] | ≥ 90
CC(=O)c1ccc(N2CCc3cnc(N4CCN(C5CCC5)CC4)nc3CC2)cc1 [Compound 11, 1-{4-[2-(4-Cyclobutyl-piperazin-1-yl)-5,6,8,9-tetrahydro-pyrimido[4.5-d]azepin-7-yl]-phenyl}-ethanone] | ≥ 90
O=S(=O)(c1ccccc1)N1CCc2cnc(N3CCN(C4CCC4)CC3)nc2CC1 [Compound 12, 7-Benzenesulfonyl-2-(4-Cyclobutyl-piperazin-1-yl)-6,7,8,9-tetrahydro-5H-pyrimido[4.5-d]azepine] | ≥ 90
